Earlier results on one molecule are cited in patent publication US20100093659A1, “POLYVALENT BIOCONJUGATES” (GLYKOS FINLAND OY, priority 2006, published 2010).

The data set relates to Helicobacter pylori. The conditions noted are these: monomeric form.

On to `CC(=O)N[C@H]1[C@H]([C@H](O)[C@H](O)CO)O[C@@](O[C@H]2[C@@H](O)[C@@H](CO)O[C@@H](O[C@H]3[C@H](O)[C@@H](O)C(O)O[C@@H]3CO)[C@@H]2O)(C(=O)O)C[C@@H]1O` (stereo partly shown) [3′-sialyllactose], for which the “concentrations at which adhesion of Helicobacter pylori to gastrointestinal epithelial cells was inhibited” value is “millimolar”.
